What is called IC50 is the point on the concentration scale where inhibition reaches its midpoint.

Where two headings read alike, the source gives them in different places.

The assay concerns the target HCV NS5B polymerase (Hepatitis C virus genotype 1b, UniProt Q9WMX2). As to the kind of experiment: HCV NS5B polymerase inhibition assay (FlashPlate, [α-33P]GTP incorporation). It is filed as biochemical. On the procedure: Compounds were tested for HCV NS5B polymerase inhibition. Assays were performed in a 96-well streptavidin-coated FlashPlate using 20 nM enzyme, 1.4 μCi of [(α-^33P]GTP, 0.63 μM GTP, and 250 nM 5′biotinylated oligo (rG13)/poly rC in 20 mM Tris-HCl, pH 7.5, 5 mM MgCl2, 5 mM dithiothreitol, 0.1 g/L bovine serum albumin, and 100 U/ml RNAse inhibitor. The reaction was stopped by aspiration after 75 min at 28° C. and the plate was washed several times. After washing and drying the plate, incorporated radioactivity was counted using a Microbeta scintillation counter. IC50 values were calculated relative to the uninhibited control and inhibition data were fitted to a 4-parameter IC50 equation. For very potent inhibitors, the data were fitted to a tight binding quadratic equation to obtain IC50 values.

The mark [1] stands for this setting: 20 nM enzyme, 75 min at 28° C., read-out: NS5B IC50.
The mark [2] stands for this setting: read-out: NS5B polymerase inhibition IC50.

Sequence of HCV NS5B polymerase (Q9WMX2 2420-3010): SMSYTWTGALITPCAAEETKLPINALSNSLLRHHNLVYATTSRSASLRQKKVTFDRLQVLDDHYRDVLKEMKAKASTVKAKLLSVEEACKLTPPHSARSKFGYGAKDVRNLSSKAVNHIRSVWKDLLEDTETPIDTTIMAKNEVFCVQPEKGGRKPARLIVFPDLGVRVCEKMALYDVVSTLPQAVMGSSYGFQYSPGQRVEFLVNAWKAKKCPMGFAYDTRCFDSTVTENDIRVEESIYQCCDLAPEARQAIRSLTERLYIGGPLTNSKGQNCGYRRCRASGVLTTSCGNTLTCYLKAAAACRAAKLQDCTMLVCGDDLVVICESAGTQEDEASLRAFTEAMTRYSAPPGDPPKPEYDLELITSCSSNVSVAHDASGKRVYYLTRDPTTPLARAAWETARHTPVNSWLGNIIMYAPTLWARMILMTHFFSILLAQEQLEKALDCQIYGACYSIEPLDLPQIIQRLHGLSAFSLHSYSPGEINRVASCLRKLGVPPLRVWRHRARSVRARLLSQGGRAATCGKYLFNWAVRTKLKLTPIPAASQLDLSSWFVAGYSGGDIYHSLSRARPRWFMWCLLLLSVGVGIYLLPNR

Take `CS(=O)(=O)Nc1ccc2c(c1)S(C)(=O)=NC(C1=C(O)[C@H]3[C@H]([C@@H]4CC[C@H]3O4)N(Cc3ccc(F)cc3)C1=O)=N2` (mixture of isomers) [Compound 63, N-{3-[3-(4-fluoro-benzyl)-6-hydroxy-4-oxo-11-oxa-3-aza-tricyclo[6.2.1.0^2,7]undec-5-en-5-yl]-1-methyl-1-oxo-1λ^6-benzo[1,2,4]thiadiazin-7-yl}-methanesulfonamide]: the IC50 reads like this: under setting [1], below 1 µM; under setting [2], below 1 µM.

In the case of `CC[C@H]1CC(O)=C(C2=Nc3ccc(NS(C)(=O)=O)cc3S(C)(=O)=N2)C(=O)N1Cc1ccc(F)cc1` (mixture of isomers) [Compound 75, N-{3-[6-(S)-Ethyl-1-(4-fluoro-benzyl)-4-hydroxy-2-oxo-1,2,5,6-tetrahydro-pyridin-3-yl]-1-methyl-1-oxo-1λ^6-benzo[1,2,4]thiadiazin-7-yl}-methanesulfonamide], the IC50 reads like this: under setting [1], below 1 µM; under setting [2], below 1 µM.

On to `CC(C)(C)CCn1nc(-c2cccs2)c(O)c(C2=Nc3ccc(NS(C)(=O)=O)cc3S(C)(=O)=N2)c1=O` (racemic) [Compound 22, N-{3-[2-(3,3-dimethyl-butyl)-5-hydroxy-3-oxo-6-thiophen-2-yl-2,3-dihydro-pyridazin-4-yl]-1-methyl-1-oxo-1l6-benzo[1,2,4]thiadiazin-7-yl}-methanesulfonamide], for which the IC50 is, setting by setting: under setting [1], below 1 µM; under setting [2], below 1 µM.

Take `CC(C)(C)CC[C@@]1(C)C(=O)C(C2=Nc3ccc(NS(C)(=O)=O)cc3S(C)(=O)=N2)=C(O)c2ccccc21` (mixture of isomers) [Compound 36, N-{3-[4-(3,3-dimethyl-butyl)-1-hydroxy-4-methyl-3-oxo-3,4-dihydro-naphthalen-2-yl]-1-methyl-1-oxo-1λ^6-benzo[1,2,4]thiadiazin-7-yl}-methanesulfonamide]: the IC50 is below 1 µM under setting [1] and below 1 µM under setting [2].

Regarding `CC(C)(C)[C@H]1C(O)=C(C2=Nc3ccc(NS(C)(=O)=O)cc3S(C)(=O)=N2)C(=O)N1Cc1ccc(F)c(Cl)c1` (stereo in doubt) [Compound 32, N-{3-[5-tert-butyl-1-(3-chloro-4-fluoro-benzyl)-4-hydroxy-2-oxo-2,5-dihydro-1H-pyrrol-3-yl]-1-methyl-1-oxo-1λ^6-benzo[1,2,4]thiadiazin-7-yl}-methanesulfonamide], the IC50 under setting [1] is below 1 µM and the IC50 under setting [2] was below 1 µM.

Regarding `CS1(=O)=NC(C2=C(O)[C@@H]3CCC[C@@H]3N(Cc3ccc(F)cc3)C2=O)=Nc2ccccc21` (stereo in doubt) [Compound 68, 1-(4-fluoro-benzyl)-4-hydroxy-3-(1-methyl-1-oxo-1λ^6-benzo[1,2,4]thiadiazin-3-yl)-1,4a,5,6,7,7a-hexahydro-[1]pyrindin-2-one], the IC50 reads like this: under setting [1], 1 to 100 µM; under setting [2], below 100 µM.

Regarding `CC(C)(C)CCn1nc(-c2cccs2)c(O)c(C2=Nc3ccc(NS(C)(=O)=O)cc3[S@@](C)(=O)=N2)c1=O` [Compound 23], the IC50 under setting [1] is below 1 µM and the half-maximal inhibitory concentration (IC50) under setting [2] is below 1 µM.

Consider `CC(C)(C)CCn1nc(-c2cccs2)c(O)c(C2=Nc3ccc(NS(C)(=O)=O)cc3[S@](C)(=O)=N2)c1=O` [Compound 24], for which the IC50 was 1 to 100 µM under setting [1] and below 100 µM under setting [2].

Turning to `CC(C)(C)CCn1nc(N2CCCC2)c(O)c(C2=Nc3ccc(NS(C)(=O)=O)cc3S(C)(=O)=N2)c1=O` (stereo not drawn) [Compound 28, N-{3-[2-(3,3-dimethyl-butyl)-5-hydroxy-3-oxo-6-pyrrolidin-1-yl-2,3-dihydro-pyridazin-4-yl]-1-methyl-1-oxo-1λ^6-benzo[1,2,4]thiadiazin-7-yl}-methanesulfonamide], the IC50 was below 1 µM under setting [1] and below 1 µM under setting [2].

For the molecule `CC(C)(C)CC[C@@]1(C)C(=O)C(C2=Nc3ccc(NS(C)(=O)=O)cc3[S@@](C)(=O)=N2)=C(O)c2ccccc21` [Compound 37], the IC50 is, setting by setting: under setting [1], below 1 µM; under setting [2], below 1 µM.

With `CC(C)(C)CC[C@@]1(C)C(=O)C(C2=Nc3ccc(NS(C)(=O)=O)cc3[S@](C)(=O)=N2)=C(O)c2ccccc21` [Compound 38], the IC50 was below 1 µM under setting [1] and below 1 µM under setting [2].

As to `CS(=O)(=O)Nc1ccc2c(c1)S(C)(=O)=NC(C1=C(O)[C@@H]3[C@H]4CC[C@H](C4)[C@@H]3N(Cc3ccc(F)cc3)C1=O)=N2` (stereo partly drawn) [Compound 54, N-{3-[3-(4-fluoro-benzyl)-6-hydroxy-4-oxo-3-aza-tricyclo[6.2.1.0^2,7]undec-5-en-5-yl]-1-methyl-1-oxo-1λ^6-benzo[1,2,4]thiadiazin-7-yl}-methanesulfonamide], the IC50 under setting [1] was below 1 µM and the concentration for half-maximal inhibition (IC50) under setting [2] is below 1 µM.
